Experimental data published in US10131652B2, “Pyrimidinyloxy benzene derivatives as herbicides” (E. I. DU PONT DE NEMOURS AND COMPANY, priority 2014, dated 2018).
Read-outs that look alike come from different tables or passages of the source.

Key:
Assay in all cases: Test E pre-/postemergence plant response
Assay type in all cases: in vivo
[1] = test system: green foxtail (Setaria viridis); conditions: scale 0 to 100, read-out: Plant response rating, Foxtail, Green; for pest or weed control at 31 g/ha: 31 g ai/ha; for pest or weed control at 62 g/ha: 62 g ai/ha; for pest or weed control at 125 g/ha: 125 g ai/ha
Procedure, shortened: (§1)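 Visual scores on a 0–100 scale (100 = complete control) were assigned against untreated controls 7–21 days after treatment in a controlled environment. Compounds, formulated with solvent plus surfactant, were applied to pre-emergence silt-loam sowings or to 1- to 4-leaf plants (2–18 cm) in potting medium.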

[2] = test system: chickweed (common chickweed, Stellaria media); conditions: scale 0 to 100, read-out: Plant response rating, Chickweed; for pest or weed control at 16 g/ha: 16 g ai/ha; for pest or weed control at 31 g/ha: 31 g ai/ha; for pest or weed control at 62 g/ha: 62 g ai/ha; for pest or weed control at 125 g/ha: 125 g ai/ha
Procedure, shortened: as §1

[3] = test system: lambsquarters (Chenopodium album); conditions: scale 0 to 100, read-out: Plant response rating, Lambsquarters; for pest or weed control at 16 g/ha: 16 g ai/ha; for pest or weed control at 31 g/ha: 31 g ai/ha; for pest or weed control at 62 g/ha: 62 g ai/ha; for pest or weed control at 125 g/ha: 125 g ai/ha
Procedure, shortened: as §1

[4] = test system: galium (catchweed bedstraw, Galium aparine); conditions: scale 0 to 100, read-out: Plant response rating, Galium; for pest or weed control at 16 g/ha: 16 g ai/ha; for pest or weed control at 31 g/ha: 31 g ai/ha; for pest or weed control at 62 g/ha: 62 g ai/ha; for pest or weed control at 125 g/ha: 125 g ai/ha
Procedure, shortened: as §1

[5] = test system: winter barley (Hordeum vulgare); conditions: post-emergence, Postemergence, scale 0 to 100, read-out: Plant response rating, Barley, Winter
Procedure, shortened: as §1

[6] = test system: spring wheat (Triticum aestivum); conditions: post-emergence, Postemergence, scale 0 to 100, read-out: Plant response rating, Wheat, Spring
Procedure, shortened: as §1

[7] = test system: Italian ryegrass (Lolium multiflorum); conditions: scale 0 to 100, read-out: Plant response rating, Ryegrass, Italian; for pest or weed control at 16 g/ha: 16 g ai/ha; for pest or weed control at 31 g/ha: 31 g ai/ha; for pest or weed control at 62 g/ha: 62 g ai/ha; for pest or weed control at 125 g/ha: 125 g ai/ha
Procedure, shortened: as §1

[8] = test system: pigweed (Amaranthus retroflexus); conditions: scale 0 to 100, read-out: Plant response rating, Pigweed; for pest or weed control at 16 g/ha: 16 g ai/ha; for pest or weed control at 31 g/ha: 31 g ai/ha; for pest or weed control at 62 g/ha: 62 g ai/ha; for pest or weed control at 125 g/ha: 125 g ai/ha
Procedure, shortened: as §1

[9] = test system: field violet (Viola arvensis); conditions: scale 0 to 100, read-out: Plant response rating, Field Violet; for pest or weed control at 31 g/ha: 31 g ai/ha; for pest or weed control at 125 g/ha: 125 g ai/ha
Procedure, shortened: as §1

[10] = test system: oilseed rape (Brassica napus); conditions: scale 0 to 100, read-out: Plant response rating, Oilseed Rape; for plant injury at 16 g/ha: 16 g ai/ha; for plant injury at 31 g/ha: 31 g ai/ha; for plant injury at 62 g/ha: 62 g ai/ha; for plant injury at 125 g/ha: 125 g ai/ha
Procedure, shortened: as §1

[11] = post-emergence, 16 g ai/ha, Postemergence

With FC(F)(F)c1cc(-c2ccccc2Oc2ncc(Cl)cn2)no1 [Compound 200, 5-chloro-2-[2-[5-(trifluoromethyl)-3-isoxazolyl]phenoxy]pyrimidine] the pest or weed control at 16 g/ha [1, 11] was 25%, the pest or weed control at 31 g/ha ([1]; post-emergence, Postemergence) was 35% and the pest or weed control at 62 g/ha ([1]; post-emergence, Postemergence) was 45%. It also gave a pest or weed control at 125 g/ha ([1]; post-emergence, Postemergence) of 55%, a pest or weed control at 31 g/ha ([1]; pre-emergence, Preemergence) of 25% and a pest or weed control at 62 g/ha ([1]; pre-emergence, Preemergence) of 100%. It also gave a pest or weed control at 125 g/ha ([1]; pre-emergence, Preemergence) of 100%, a pest or weed control at 16 g/ha ([2]; post-emergence, Postemergence) of 65% and a pest or weed control at 31 g/ha ([2]; post-emergence, Postemergence) of 75%. The pest or weed control at 62 g/ha ([2]; post-emergence, Postemergence) was 100%, the pest or weed control at 125 g/ha ([2]; post-emergence, Postemergence) was 100% and the pest or weed control at 16 g/ha ([2]; pre-emergence, Preemergence) was 70%. It also gave a pest or weed control at 31 g/ha ([2]; pre-emergence, Preemergence) of 90%, a pest or weed control at 62 g/ha ([2]; pre-emergence, Preemergence) of 100% and a pest or weed control at 125 g/ha ([2]; pre-emergence, Preemergence) of 100%. It also gave a pest or weed control at 16 g/ha ([3]; post-emergence, Postemergence) of 75%, a pest or weed control at 31 g/ha ([3]; post-emergence, Postemergence) of 85% and a pest or weed control at 62 g/ha ([3]; post-emergence, Postemergence) of 90%. It also gave a pest or weed control at 125 g/ha ([3]; post-emergence, Postemergence) of 95%, a pest or weed control at 16 g/ha ([3]; pre-emergence, Preemergence) of 10% and a pest or weed control at 31 g/ha ([3]; pre-emergence, Preemergence) of 85%. For the same molecule, the pest or weed control at 62 g/ha ([3]; pre-emergence, Preemergence) was 100%, the pest or weed control at 125 g/ha ([3]; pre-emergence, Preemergence) was 100% and the pest or weed control at 16 g/ha ([4]; post-emergence, Postemergence) was 70%. The pest or weed control at 31 g/ha ([4]; post-emergence, Postemergence) was 75%, the pest or weed control at 62 g/ha ([4]; post-emergence, Postemergence) was 75% and the pest or weed control at 125 g/ha ([4]; post-emergence, Postemergence) was 90%. The pest or weed control at 16 g/ha ([4]; pre-emergence, Preemergence) was 15%, the pest or weed control at 31 g/ha ([4]; pre-emergence, Preemergence) was 25% and the pest or weed control at 62 g/ha ([4]; pre-emergence, Preemergence) was 55%. For the same molecule, the pest or weed control at 125 g/ha ([4]; pre-emergence, Preemergence) was 100%, the plant injury at 16 g/ha ([5]; 16 g ai/ha) was 5% and the plant injury at 31 g/ha ([5]; 31 g ai/ha) was 10%. It also gave a plant injury at 62 g/ha ([5]; 62 g ai/ha) of 20%, a plant injury at 125 g/ha ([5]; 125 g ai/ha) of 25% and a plant injury at 16 g/ha ([6]; 16 g ai/ha) of 5%. The plant injury at 31 g/ha ([6]; 31 g ai/ha) was 10%, the plant injury at 62 g/ha ([6]; 62 g ai/ha) was 20% and the plant injury at 125 g/ha ([6]; 125 g ai/ha) was 35%. The pest or weed control at 16 g/ha ([7]; post-emergence, Postemergence) was 5%, the pest or weed control at 31 g/ha ([7]; post-emergence, Postemergence) was 10% and the pest or weed control at 62 g/ha ([7]; post-emergence, Postemergence) was 25%. The pest or weed control at 125 g/ha ([7]; post-emergence, Postemergence) was 40%, the pest or weed control at 16 g/ha ([7]; pre-emergence, Preemergence) was 0% and the pest or weed control at 31 g/ha ([7]; pre-emergence, Preemergence) was 25%. The pest or weed control at 62 g/ha ([7]; pre-emergence, Preemergence) was 30%, the pest or weed control at 125 g/ha ([7]; pre-emergence, Preemergence) was 85% and the pest or weed control at 16 g/ha ([8]; post-emergence, Postemergence) was 85%. For the same molecule, the pest or weed control at 31 g/ha ([8]; post-emergence, Postemergence) was 90%, the pest or weed control at 62 g/ha ([8]; post-emergence, Postemergence) was 90% and the pest or weed control at 125 g/ha ([8]; post-emergence, Postemergence) was 90%. For the same molecule, the pest or weed control at 16 g/ha ([8]; pre-emergence, Preemergence) was 100%, the pest or weed control at 31 g/ha ([8]; pre-emergence, Preemergence) was 100% and the pest or weed control at 62 g/ha ([8]; pre-emergence, Preemergence) was 100%. For the same molecule, the pest or weed control at 125 g/ha ([8]; pre-emergence, Preemergence) was 100%, the pest or weed control at 16 g/ha [9, 11] was 70% and the pest or weed control at 31 g/ha ([9]; post-emergence, Postemergence) was 80%. It also gave a pest or weed control at 62 g/ha ([9]; post-emergence, 62 g ai/ha, Postemergence) of 75%, a pest or weed control at 125 g/ha ([9]; post-emergence, Postemergence) of 95% and a pest or weed control at 31 g/ha ([9]; pre-emergence, Preemergence) of 50%. It also gave a pest or weed control at 125 g/ha ([9]; pre-emergence, Preemergence) of 100%, a plant injury at 16 g/ha ([10]; post-emergence, Postemergence) of 75% and a plant injury at 31 g/ha ([10]; post-emergence, Postemergence) of 85%. It also gave a plant injury at 62 g/ha ([10]; post-emergence, Postemergence) of 100%, a plant injury at 125 g/ha ([10]; post-emergence, Postemergence) of 100% and a plant injury at 16 g/ha ([10]; pre-emergence, Preemergence) of 60%. It also gave a plant injury at 31 g/ha ([10]; pre-emergence, Preemergence) of 100%, a plant injury at 62 g/ha ([10]; pre-emergence, Preemergence) of 100% and a plant injury at 125 g/ha ([10]; pre-emergence, Preemergence) of 100%.
